Series [1] has as its target Protein-tyrosine kinase 2-beta (Homo sapiens, UniProt Q14289).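 Also: potency of inhibitors of PYK2 kinase phosphorylation of poly-GT substrate.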
Series [2] concerns the target T1, SUMO-activating enzyme (Homo sapiens, UniProt Q9UBT2). The series is described as follows: blockers of SAE1/SAE2–UBC9 SUMO transfer – biochemical, HTRF, uHTS, primary screen (AID 2006). It counts as protein-complex assay.
Series [3] concerns the target DNA (cytosine-5)-methyltransferase 1 (Homo sapiens, UniProt P26358). The series is described as follows: inhibition of DNA methylation by DNMT1 – biochemical, fluorescent molecular beacon, confirmation (AID 602386). It counts as functional.
In series [4] the target is T2, Voltage-gated N-type calcium channel alpha-1B subunit/Amyloid beta A4 precursor protein-binding family A member 1 (Homo sapiens, UniProt Q00975+Q02410). The series is described as follows: disruptors of Mint-PDZ/N-type channel peptide interaction – biochemical, HTRF, set 2, SAR follow-up (AID 434980). The class given is functional.
The target of series [5] is SUMO E1/E2 (Homo sapiens, UniProt P63279+Q9UBE0+Q9UBT2). The series can be described thus: SAR analysis of SUMOylation using HTRF in an in-Vitro dose response assay. [Related pubchem assays (depositor defined):AID2006, AID2011, AID2018, AID2069, AID2658]. The class given is functional.
Series [6] addresses T1, SUMO-activating enzyme. The series is described as follows: blockers of UBC9-mediated SUMO conjugation – biochemical, AlphaScreen, SUMOylation inhibitor project, confirmation (AID 2018). The class given is functional.
The target in series [7] is T2, Voltage-gated N-type calcium channel alpha-1B subunit/Amyloid beta A4 precursor protein-binding family A member 1. The series can be described thus: disruptors of Mint-PDZ/N-type channel peptide interaction – biochemical, HTRF, SAR follow-up (AID 2489). It counts as functional.
Series [8] has as its target T3, Rac GTPase-activating protein 1 (Homo sapiens, UniProt Q9H0H5).
T3 sequence (Q9H0H5 whole entry): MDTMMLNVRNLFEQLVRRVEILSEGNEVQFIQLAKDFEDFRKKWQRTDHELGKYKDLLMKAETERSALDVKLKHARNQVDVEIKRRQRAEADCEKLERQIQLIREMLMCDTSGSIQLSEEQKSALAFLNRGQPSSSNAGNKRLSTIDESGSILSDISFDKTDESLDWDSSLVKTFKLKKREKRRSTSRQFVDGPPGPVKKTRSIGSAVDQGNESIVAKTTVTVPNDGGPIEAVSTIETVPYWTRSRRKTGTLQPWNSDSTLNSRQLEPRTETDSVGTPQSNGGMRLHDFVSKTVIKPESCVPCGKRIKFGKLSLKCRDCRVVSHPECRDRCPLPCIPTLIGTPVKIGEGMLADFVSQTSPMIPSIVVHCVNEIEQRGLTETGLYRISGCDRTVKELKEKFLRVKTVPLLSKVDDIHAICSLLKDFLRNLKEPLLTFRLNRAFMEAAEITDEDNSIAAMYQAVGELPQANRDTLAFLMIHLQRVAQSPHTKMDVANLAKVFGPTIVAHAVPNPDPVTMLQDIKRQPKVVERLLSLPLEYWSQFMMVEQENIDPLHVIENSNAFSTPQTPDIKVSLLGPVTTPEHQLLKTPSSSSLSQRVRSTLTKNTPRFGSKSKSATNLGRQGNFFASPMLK
The series can be described thus: blockers of MgcRacGAP-driven Rac1 GTP hydrolysis – biochemical, ADP Hunter fluorescence, primary and confirmatory, confirmation (AID 624330). The class given is functional.

Series [9] deals with Protein Rev (Human immunodeficiency virus type 1 group M subtype B (isolate WMJ22)(HIV-1), UniProt P05866). The series is described as follows: inhibitors of Rev protein–RRE RNA complex – biochemical, protein-RNA interaction, dose response (AID 842). Set-up: species or system Human immunodeficiency virus 1.
Series [10] addresses T4, Probable nicotinate-nucleotide adenylyltransferase (Staphylococcus aureus (strain N315), UniProt P65502). It counts as functional, Staphylococcus aureus subsp. aureus N315. To be noted: read-out: IC50_Mean.
The target in series [11] is Albumin (Bos taurus, UniProt P02769). The series is described as follows: Counterscreen for inhibitors of T-cell receptor (TCR)-CD3 interaction: Fluorescence-based biochemical high throughput dose response assay to identify inhibitors of T-cell receptor (TCR)-CD3 interaction using a TAMRA-labeled BSA probe. The class given is functional.
In series [12] the target is Genome polyprotein (Hepatitis C virus, UniProt Q2Q167). The series can be described thus: disruption of hepatitis C core self-association – biochemical, TR-FRET, dose response (AID 2159).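 Also: blocks dimerization of HCV core protein measured by TR-FRET between tagged core106 pairs.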 The arrangement: species or system Hepacivirus hominis.
Series [13] has as its target T2, Voltage-gated N-type calcium channel alpha-1B subunit/Amyloid beta A4 precursor protein-binding family A member 1. The class given is protein assay.
Series [14] concerns the target T4, Probable nicotinate-nucleotide adenylyltransferase. The class given is functional, Staphylococcus aureus subsp. aureus N315.
Series [15] addresses T5, Bcl-2-like protein 10 (Homo sapiens, UniProt Q9HD36).
T5 sequence (Q9HD36 whole entry): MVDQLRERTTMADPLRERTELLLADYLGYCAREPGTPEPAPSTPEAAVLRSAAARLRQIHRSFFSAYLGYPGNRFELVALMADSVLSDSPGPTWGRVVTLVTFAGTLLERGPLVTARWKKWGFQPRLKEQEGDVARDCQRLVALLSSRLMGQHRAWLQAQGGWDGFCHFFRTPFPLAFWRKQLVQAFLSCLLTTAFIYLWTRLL
The series can be described thus: Bcl-B/TR3 peptide binding disruption – biochemical, fluorescence polarization, FITC-TR3 peptide, selectivity assay for Bfl-1 inhibitor project, primary screen (AID 748).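 Also: fluorescence polarization from a fluorescein-labelled TR3 peptide binding purified Bcl-B.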

The target of series [16] is T2, Voltage-gated N-type calcium channel alpha-1B subunit/Amyloid beta A4 precursor protein-binding family A member 1. The class given is protein assay. The source holds these as a separate data set.
The target in series [17] is T6, Apoptotic protease-activating factor 1 (Homo sapiens, UniProt O14727).
T6 sequence (O14727 whole entry): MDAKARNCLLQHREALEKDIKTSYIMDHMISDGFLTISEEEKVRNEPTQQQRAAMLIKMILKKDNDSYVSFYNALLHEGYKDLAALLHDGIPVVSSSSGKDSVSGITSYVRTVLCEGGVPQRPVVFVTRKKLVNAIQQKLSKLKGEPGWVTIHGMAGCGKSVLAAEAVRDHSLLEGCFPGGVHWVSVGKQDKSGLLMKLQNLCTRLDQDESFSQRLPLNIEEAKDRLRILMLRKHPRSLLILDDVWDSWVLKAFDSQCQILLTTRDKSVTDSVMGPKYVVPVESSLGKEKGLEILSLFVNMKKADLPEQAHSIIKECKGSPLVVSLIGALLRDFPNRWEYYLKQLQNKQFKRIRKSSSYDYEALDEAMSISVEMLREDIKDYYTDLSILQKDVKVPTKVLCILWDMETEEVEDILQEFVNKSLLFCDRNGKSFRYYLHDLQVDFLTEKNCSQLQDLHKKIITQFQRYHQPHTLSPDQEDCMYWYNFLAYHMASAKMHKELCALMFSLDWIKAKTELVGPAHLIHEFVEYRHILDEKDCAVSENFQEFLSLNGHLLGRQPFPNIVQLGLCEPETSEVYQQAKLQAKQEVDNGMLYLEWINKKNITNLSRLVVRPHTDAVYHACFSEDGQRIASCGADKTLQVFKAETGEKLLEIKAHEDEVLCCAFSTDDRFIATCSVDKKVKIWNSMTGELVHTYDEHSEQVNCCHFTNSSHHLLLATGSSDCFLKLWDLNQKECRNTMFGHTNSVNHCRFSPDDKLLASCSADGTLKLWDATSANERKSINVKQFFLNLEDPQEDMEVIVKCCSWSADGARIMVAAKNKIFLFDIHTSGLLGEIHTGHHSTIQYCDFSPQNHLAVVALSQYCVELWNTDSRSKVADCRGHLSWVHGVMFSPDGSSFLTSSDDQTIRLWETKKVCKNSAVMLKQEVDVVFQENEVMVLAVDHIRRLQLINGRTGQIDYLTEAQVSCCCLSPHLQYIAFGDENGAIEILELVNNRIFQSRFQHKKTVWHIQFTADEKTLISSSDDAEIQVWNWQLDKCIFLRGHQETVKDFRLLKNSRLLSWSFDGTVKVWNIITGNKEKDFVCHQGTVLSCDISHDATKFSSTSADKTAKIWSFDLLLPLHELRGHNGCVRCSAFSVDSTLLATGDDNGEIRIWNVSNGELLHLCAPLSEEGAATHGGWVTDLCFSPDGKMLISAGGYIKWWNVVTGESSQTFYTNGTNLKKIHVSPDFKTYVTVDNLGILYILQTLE
The series can be described thus: activation of Apaf-1 mediated apoptosis – fluorescent, uHTS hits, dose response (AID 588554). The class given is functional.

Series [18] has as its target T7, Small ubiquitin-related modifier 1 (Homo sapiens, UniProt P63165). The series is described as follows: SUMO1 protein interaction blockers, potency – biochemical, fluorescence polarization, uHTS hits, dose response (AID 624382). The class given is functional. The settings on record: read-out: IC50_Mean.
Series [19] addresses T7, Small ubiquitin-related modifier 1. The series can be described thus: SUMO1 protein-protein binding blockers, potency – biochemical, FRET, dose response (AID 624383). The class given is functional. The settings on record: read-out: IC50_Mean.
Series [20] has as its target UDP-galactopyranose mutase (Mycobacterium tuberculosis, UniProt P9WIQ1). The series can be described thus: Inhibitors of Mycobacterium tuberculosis UDP-galactopyranose mutase (UGM) enzyme Measured in Biochemical System Using Plate Reader - 2105-02_Inhibitor_Dose_CherryPick_Activity. [Related pubchem assays (depositor defined):AID504439].
For series [21], the target named is Cytochrome P450 2D6 (Homo sapiens, UniProt P10635).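 Also: CYP2D6 member of a cytochrome P450 panel assay.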
In series [22] the target is T8, Cytochrome P450 1A2 (Homo sapiens, UniProt P05177).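 Also: PubChem cytochrome P450 panel assay, CYP1A2 panel member.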
T8 sequence (P05177 whole entry): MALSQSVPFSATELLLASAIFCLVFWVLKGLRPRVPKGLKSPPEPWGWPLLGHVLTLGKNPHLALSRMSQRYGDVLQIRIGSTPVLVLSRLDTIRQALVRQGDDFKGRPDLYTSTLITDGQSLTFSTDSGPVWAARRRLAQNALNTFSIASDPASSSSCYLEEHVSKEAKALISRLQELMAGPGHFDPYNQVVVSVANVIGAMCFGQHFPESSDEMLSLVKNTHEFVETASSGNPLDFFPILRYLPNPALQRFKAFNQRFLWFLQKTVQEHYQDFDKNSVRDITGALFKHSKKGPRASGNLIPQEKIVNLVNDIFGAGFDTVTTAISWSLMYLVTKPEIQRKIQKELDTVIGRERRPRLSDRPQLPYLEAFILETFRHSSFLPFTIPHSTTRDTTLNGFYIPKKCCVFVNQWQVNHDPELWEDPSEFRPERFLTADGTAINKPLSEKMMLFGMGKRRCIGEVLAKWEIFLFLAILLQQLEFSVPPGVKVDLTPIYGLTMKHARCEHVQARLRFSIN

Series [23] relates to Candida albicans. The series can be described thus: antifungal activity against resistant Candida strain – CaCi-8, fluconazole, Alamar Blue, dry powder, dose response (AID 488807). The class given is functional, organism-based.

SMILES strings stand for the structures. Several values for one entry are separate records, joined by “and”; a condition that tells them apart may be missing. Equal values may be shown once. Activity calls are given as the source filed them.

T2 sequence (Q00975 whole entry): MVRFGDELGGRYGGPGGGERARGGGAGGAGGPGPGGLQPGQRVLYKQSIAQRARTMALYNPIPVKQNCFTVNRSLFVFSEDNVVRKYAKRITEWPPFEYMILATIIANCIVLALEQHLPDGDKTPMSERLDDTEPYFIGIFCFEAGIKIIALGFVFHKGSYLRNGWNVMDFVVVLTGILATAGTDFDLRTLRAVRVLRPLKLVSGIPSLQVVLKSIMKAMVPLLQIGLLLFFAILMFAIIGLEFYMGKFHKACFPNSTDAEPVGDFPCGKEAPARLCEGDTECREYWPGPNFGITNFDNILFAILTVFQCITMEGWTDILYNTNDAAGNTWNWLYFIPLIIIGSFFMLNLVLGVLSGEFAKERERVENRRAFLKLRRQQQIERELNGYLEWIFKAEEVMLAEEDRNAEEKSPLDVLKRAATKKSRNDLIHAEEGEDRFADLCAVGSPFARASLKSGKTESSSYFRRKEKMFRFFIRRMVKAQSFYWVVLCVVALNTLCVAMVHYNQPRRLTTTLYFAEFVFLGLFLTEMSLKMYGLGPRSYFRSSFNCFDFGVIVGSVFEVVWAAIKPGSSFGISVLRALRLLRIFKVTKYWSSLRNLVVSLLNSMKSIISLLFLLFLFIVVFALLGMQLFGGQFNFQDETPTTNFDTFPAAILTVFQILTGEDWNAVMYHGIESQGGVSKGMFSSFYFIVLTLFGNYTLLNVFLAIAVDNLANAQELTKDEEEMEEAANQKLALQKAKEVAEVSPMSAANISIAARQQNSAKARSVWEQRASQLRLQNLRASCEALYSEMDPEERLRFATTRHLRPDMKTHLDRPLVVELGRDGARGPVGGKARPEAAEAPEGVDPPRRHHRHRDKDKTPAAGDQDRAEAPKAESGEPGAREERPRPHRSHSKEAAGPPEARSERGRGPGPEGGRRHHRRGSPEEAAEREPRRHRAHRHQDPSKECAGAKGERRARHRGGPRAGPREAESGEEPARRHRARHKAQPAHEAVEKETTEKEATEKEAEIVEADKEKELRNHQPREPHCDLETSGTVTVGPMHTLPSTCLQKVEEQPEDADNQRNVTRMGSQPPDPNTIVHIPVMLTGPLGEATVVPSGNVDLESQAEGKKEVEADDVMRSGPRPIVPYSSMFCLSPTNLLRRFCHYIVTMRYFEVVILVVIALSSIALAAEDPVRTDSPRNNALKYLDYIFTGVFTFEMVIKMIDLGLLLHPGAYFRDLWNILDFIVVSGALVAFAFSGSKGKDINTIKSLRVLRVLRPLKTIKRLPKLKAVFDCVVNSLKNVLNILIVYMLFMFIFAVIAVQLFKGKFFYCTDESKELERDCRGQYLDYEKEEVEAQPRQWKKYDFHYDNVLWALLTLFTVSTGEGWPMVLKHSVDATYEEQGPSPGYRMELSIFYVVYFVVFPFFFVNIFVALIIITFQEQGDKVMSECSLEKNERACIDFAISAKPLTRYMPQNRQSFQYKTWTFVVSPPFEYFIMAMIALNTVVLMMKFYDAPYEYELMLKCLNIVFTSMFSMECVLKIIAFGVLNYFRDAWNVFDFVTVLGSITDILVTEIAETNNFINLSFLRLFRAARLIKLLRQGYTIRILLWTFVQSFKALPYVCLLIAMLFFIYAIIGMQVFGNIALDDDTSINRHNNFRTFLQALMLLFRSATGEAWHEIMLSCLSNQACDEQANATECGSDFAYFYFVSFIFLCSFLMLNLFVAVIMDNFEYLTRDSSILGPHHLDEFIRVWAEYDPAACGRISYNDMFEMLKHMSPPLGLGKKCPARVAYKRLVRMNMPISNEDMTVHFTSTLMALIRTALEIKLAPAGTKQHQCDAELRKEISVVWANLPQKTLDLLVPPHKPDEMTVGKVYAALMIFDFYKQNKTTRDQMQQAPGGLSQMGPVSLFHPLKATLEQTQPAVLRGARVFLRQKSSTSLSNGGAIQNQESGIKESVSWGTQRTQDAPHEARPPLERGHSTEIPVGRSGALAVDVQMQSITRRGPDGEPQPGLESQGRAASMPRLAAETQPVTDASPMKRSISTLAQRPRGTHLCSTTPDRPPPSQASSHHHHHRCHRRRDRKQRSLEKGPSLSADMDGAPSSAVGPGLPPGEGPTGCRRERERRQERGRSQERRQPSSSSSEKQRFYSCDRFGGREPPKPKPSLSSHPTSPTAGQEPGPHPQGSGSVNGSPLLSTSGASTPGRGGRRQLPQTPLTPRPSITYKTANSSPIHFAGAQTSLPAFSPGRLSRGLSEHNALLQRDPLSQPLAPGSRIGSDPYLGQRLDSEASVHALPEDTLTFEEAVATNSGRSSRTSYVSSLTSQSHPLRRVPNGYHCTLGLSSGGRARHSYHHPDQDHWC
T2 sequence (Q02410 whole entry): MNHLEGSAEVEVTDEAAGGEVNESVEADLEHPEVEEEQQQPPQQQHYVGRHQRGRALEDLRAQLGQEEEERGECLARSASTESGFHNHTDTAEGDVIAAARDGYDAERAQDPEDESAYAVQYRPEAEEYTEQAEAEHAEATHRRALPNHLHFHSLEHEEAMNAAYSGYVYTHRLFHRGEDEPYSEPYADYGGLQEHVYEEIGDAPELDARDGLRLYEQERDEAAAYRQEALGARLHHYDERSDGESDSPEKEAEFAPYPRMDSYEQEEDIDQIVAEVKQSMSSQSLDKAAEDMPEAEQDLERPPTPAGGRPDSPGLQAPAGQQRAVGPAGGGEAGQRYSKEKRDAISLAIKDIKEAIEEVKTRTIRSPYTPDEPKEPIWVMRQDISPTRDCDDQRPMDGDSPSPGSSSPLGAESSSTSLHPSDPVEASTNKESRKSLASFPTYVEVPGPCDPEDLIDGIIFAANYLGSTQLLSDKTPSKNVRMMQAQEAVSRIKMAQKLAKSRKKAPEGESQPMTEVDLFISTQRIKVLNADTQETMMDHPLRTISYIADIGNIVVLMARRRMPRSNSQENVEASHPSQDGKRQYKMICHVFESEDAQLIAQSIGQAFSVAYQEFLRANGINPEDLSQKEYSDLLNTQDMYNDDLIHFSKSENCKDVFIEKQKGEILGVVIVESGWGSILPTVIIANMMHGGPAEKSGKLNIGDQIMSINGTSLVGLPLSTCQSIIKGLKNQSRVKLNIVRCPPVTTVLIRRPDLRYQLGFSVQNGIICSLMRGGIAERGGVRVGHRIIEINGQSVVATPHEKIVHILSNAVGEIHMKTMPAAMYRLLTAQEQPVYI
T7 sequence (P63165 whole entry): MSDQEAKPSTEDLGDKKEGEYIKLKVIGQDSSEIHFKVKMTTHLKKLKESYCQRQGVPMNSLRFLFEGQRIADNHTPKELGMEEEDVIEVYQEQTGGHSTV
T1 sequence (Q9UBE0 whole entry): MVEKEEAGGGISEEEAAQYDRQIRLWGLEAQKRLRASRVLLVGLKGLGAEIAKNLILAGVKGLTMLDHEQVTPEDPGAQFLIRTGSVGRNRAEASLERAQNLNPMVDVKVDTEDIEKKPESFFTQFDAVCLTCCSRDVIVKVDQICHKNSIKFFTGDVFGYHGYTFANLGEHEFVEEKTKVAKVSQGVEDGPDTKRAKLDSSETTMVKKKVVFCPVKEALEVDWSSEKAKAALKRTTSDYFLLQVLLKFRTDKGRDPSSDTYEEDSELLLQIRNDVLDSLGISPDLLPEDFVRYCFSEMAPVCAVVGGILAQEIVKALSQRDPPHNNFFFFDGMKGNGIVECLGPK
T1 sequence (Q9UBT2 whole entry): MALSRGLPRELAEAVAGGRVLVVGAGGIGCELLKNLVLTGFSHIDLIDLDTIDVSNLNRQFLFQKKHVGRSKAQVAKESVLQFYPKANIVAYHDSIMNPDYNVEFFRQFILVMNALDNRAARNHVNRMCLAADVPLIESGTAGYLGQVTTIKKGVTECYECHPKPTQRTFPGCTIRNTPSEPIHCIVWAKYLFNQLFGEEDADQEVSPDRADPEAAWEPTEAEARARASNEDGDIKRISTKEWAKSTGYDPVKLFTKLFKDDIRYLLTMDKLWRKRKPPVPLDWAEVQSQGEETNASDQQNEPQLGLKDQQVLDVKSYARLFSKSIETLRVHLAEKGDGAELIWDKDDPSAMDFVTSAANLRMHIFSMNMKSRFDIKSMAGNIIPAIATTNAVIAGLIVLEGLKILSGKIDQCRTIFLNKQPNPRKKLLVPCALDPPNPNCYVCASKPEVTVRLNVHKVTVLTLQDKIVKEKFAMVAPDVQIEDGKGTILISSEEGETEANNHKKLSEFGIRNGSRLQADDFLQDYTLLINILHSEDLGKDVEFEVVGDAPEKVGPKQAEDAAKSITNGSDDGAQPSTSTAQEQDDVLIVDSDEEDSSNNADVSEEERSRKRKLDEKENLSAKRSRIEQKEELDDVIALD
Chain of SUMO E1/E2 (Q9UBE0 whole entry): as the sequence (Q9UBE0 whole entry) above
Chain of SUMO E1/E2 (Q9UBT2 whole entry): as the sequence (Q9UBT2 whole entry) above
Chain of SUMO E1/E2 (P63279 whole entry): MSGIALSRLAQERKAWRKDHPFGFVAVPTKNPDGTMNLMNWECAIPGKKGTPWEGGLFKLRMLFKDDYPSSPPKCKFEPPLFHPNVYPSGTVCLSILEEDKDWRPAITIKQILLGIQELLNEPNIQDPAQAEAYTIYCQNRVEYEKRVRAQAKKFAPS
T4 sequence (P65502 whole entry): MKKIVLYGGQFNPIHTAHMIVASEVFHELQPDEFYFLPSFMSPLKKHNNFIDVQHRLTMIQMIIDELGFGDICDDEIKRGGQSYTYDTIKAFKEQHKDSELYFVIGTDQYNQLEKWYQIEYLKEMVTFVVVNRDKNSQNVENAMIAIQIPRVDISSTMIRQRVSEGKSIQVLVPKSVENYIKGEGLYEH
Chain of Protein Rev (P05866 whole entry): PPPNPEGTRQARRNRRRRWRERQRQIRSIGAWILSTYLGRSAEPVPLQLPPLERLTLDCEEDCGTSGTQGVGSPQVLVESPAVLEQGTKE
Chain of Genome polyprotein (Q2Q167 whole entry): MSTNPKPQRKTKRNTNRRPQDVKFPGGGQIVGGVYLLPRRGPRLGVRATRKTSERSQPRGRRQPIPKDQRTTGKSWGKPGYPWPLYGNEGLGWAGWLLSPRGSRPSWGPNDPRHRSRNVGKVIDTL

Regarding `O=C(N/N=C/c1ccc(F)cc1)c1cc(-c2ccco2)nc2ccccc12`, the IC50 is 2.01 µM (active) in series [1]; 10.6 µM (active) in [2]; 5.57 µM (active) in series [3]; 5.57 µM (active) in series [4]; 4.33 µM (active) and 8.06 µM (active) in series [5]; 2.28 µM (active) in series [6]. Also, the IC50 in [7] was 14.6 µM (active); in series [8], 108 µM (active); in series [9], > 79.4 µM (not active); in [10], 27.1 µM (active); in series [11], > 94.1 µM (inactive); in [12] it was > 49.8 µM (not active). The IC50 in series [13] was 8.83 µM (active); in series [14], 10.8 µM (active); in series [15], 2.97 µM (active); in series [16] it was 6.44 µM (active).
As to `N#Cc1nc(-c2ccc(OCc3ccc(Cl)cc3)cc2)oc1N1CCC(C(N)=O)CC1`, in [17], the half-maximal effective concentration (EC50) is 7.04 µM (active). Also, the IC50 in [13] was 3.78 µM (active); in [16], 47.3 µM (active); in series [18], > 66.6 µM (inactive); in [19] it was 8.79 µM (active).
Regarding `CC(C)(C)c1cc[n+](-c2[n-]c(=O)sc2C=NN=C(S)Nc2ccccc2)cc1`, the AC50 in series [20] was 65.5 µM (active).
Take `Cn1c(=O)c2nc(SCc3ccccn3)[nH]c2n(C)c1=S`: the concentration at half-maximal activity (AC50) entry in series [21] is “inconclusive”; in [22], 0.0126 µM (inconclusive).
Consider `COC(=O)Cn1nc(-c2ccc(Cl)cc2)c2ccccc21`, for which, in series [23], the AC50 was 2.16 µM (active).

The values are drawn from ChEMBL document CHEMBL1201862, “PubChem BioAssay data set” (2004).
